# Measurements published in article PMC7356970, “A Population Pharmacokinetic and Pharmacodynamic Model of CKD-519” (Pharmaceutics, 2020).
# Key:
# [1] = target: T1, CETP activity (Homo sapiens, UniProt P11597); design: method as in PMID 27895466; settings: healthy subjects, cited from earlier work
# T1 construct: Plasma CETP activity was measured by using a fluorescent assay method previously described; from tissue; host or cells: plasma of healthy subjects (sodium heparin tubes)
# T1 sequence (P11597 18-493): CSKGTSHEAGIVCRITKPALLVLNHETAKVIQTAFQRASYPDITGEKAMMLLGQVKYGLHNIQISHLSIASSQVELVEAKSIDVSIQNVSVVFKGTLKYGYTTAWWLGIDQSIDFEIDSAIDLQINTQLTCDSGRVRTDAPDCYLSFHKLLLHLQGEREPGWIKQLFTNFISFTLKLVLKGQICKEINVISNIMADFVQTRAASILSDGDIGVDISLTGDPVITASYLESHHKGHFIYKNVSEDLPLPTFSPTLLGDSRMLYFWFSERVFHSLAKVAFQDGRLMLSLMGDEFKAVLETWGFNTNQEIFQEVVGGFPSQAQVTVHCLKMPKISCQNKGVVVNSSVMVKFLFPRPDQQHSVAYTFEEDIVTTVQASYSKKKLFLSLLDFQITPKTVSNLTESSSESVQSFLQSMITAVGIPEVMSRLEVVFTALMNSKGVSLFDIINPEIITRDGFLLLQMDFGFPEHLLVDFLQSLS
# [2] = target: T1, CETP activity; assay: food effect on inhibition of CETP activity, single 200 mg; assay type: in vivo
# From the text: (§1) The exposure of CKD-519 increased with the dose. However, maximum plasma concentration (Cmax) and area under the plasma concentration-time curve (AUC) normalized by dose decreased with each incremental dose.
# [3] = target: T2, Plasma CETP activity (Homo sapiens, UniProt P11597); assay: population CETP model (turnover model), plasma CETP activity by fluorescent assay; assay type: in vivo
# T2 construct: from tissue; host or cells: plasma of healthy subjects (sodium heparin tubes)
# T2 sequence (P11597 18-493): T1 sequence (P11597 18-493)
# Experimental: (§2) Blood samples for PK or PD were collected on days 1 (0, 1, 2, 3, 4, 5, 6, 7, 8, 10, 12, 18, and 24 h) and 14 (0, 1, 2, 3, 4, 5, 6, 7, 8, 10, 12, 18, 24, 32, 48, 72, 96, 120, 144, and 168 h), along with daily sampling on days 2 through 13 to determine trough levels of drug concentration, CETP activity, and lipid values. Each blood sample for PK and CETP activity was collected in sodium heparin tubes and then centrifuged at 1900 g for 10 min. Their aliquots were stored at or below […] until analysis. The plasma concentrations of CKD-519 were measured using a validated high-performance liquid chromatography-tandem mass spectrometry assay. A 100 μL plasma sample was mixed with 10 μL internal standard working solution and 300 μL acetonitrile. After centrifugation, 3 μL supernatant was injected into the column. The lower limit of quantification was 1.0 ng/mL. The calibration curve was linear over the concentration range of 1.0–2000 ng/mL. The precision of the assay was less than 2.7% coefficient of variation, and the accuracy of the assay was within the range of 93.7–113.0% [5]. Plasma CETP activity was measured by using a fluorescent assay method previously described. HDL-C and LDL-C were measured with an ADIVA 1650 Clinical Chemistry System (Siemens Medical Solutions, Tarrytown, NY, USA).
# Since CETP inhibition is closely related to HDL-C increase and LDL-C decrease, the CETP model was included as a link between the PK model of CKD-519 and cholesterol (HDL-C and LDL-C) models. For the CETP model, CETP activity was used as a dependent variable as this was the primary parameter of interest.
# The turnover model was used to describe the relationship between CETP activity and plasma concentration of CKD-519. The effect of CKD-519 was applied in the model as stimulating the elimination of CETP activity. Because the CETP activity increased over time in the placebo group, the response of placebo treatment was incorporated into the CETP model. The effects of CKD-519 and placebo treatment were evaluated as linear, Emax, or sigmoid Emax relationships. […]
# [4] = food effect on PK, single 200 mg, standard meal vs fasted; assay type: in vivo, human; settings: single 200 mg with a standard meal; in house data
# From the text: as §1
# [5] = tested on: serum CETP concentration; assay: serum CETP concentration during multiple dosing; assay type: in vivo, human; settings: time-dependent, in house data
# From the text: As reported earlier in other CETP inhibitors, the administration of CKD-519 in this study led to an approximately 2.5 fold increase in serum CETP concentration in a time-dependent manner (in house data). In the placebo group, serum CETP concentration increased by about 30% after two weeks (in house data). It has been reported that transcription of the CETP gene is under the control of extrinsic and intrinsic factors. Dietary cholesterol up-regulates CETP expression in human CETP-transgenic mice, and plasma cholesterol levels also correlate with CETP mass in humans. The increase in CETP activity in the placebo group might be due to increased serum CETP mass because dietary cholesterol regularly served during hospitalization for three weeks could have promoted CETP expression. […] Linear, Emax, and sigmoid Emax models were tested to explain CETP activity increase in the placebo group, and the Emax model by time best described the placebo effect.
# [6] = tested on: LDL-C; assay: population LDL-C model (turnover, sigmoid Emax); assay type: in vivo, human
# Experimental: as §2
# (§3) For each of the HDL-C and LDL-C model development, their clinical laboratory results were used. Their responses by changing CETP activity were described using turnover models. Taking into account the physiological mechanism of CETP on lipid metabolism, the CETP effect was incorporated into the model as a stimulatory function of HDL-C elimination and an inhibitory function of LDL-C elimination. The effect of CETP activity on HDL-C or LDL-C was evaluated using linear, Emax, or sigmoid Emax models.
# (§4) HDL-C and LDL-C models were best described with the sigmoid Emax function. The LDL-C in the placebo group tended to increase gradually over time. Thus, a linear model was used to describe the placebo effect on LDL-C after comparison with Emax and sigmoid Emax models. The changes in HDL-C and LDL-C concentration were described as follows:(7) dHDL/dt=Ksyn−Kdeg×AHDL×(1+RESCETP) (8) dLDL/dt=Ksy×(1+PLA)−Kdeg×ALDL×(1−RESCETP) (9) RESCETP=CETPactivityγ×Rmax/CETPactivityγ+R50γ (10) PLA=β×time where Ksyn and Ksy are the zero-order production rate constant, Kdeg is the first-order elimination rate constant, RESCETP is the change in CETP activity, Rmax is the maximal effect of CETP activity on HDL-C and LDL-C response, R50 is the CETP activity required to attain 50% maximal response of HDL-C and LDL-C, PLA is the placebo effect, and β is the proportionality constant.
# [7] = tested on: HDL-C; assay: population HDL-C model (turnover, sigmoid Emax); assay type: in vivo, human
# Experimental: as §2, §3, §4
# [8] = multiple-dose study in healthy male subjects, plasma PK and population PK model; assay type: in vivo, human; settings: for CL/F: observed
# Experimental: A randomized, double-blinded, placebo-controlled, multiple-dose, and dose-escalation study was conducted in a total of 32 healthy male subjects aged 19–55 years in four cohorts (50, 100, 200, and 400 mg). Six subjects were assigned to CKD-519, and two to matching placebo in each cohort. Dose escalation to the next cohort was done after the safety profile was reviewed. CKD-519 was available as two dosage forms of 50 and 100 mg tablets.
# Enrolled subjects were admitted on day −1. CKD-519 or placebo was administered to randomly assigned subjects for 14 days with a standard breakfast meal (700–800 kcal, containing 5–25% fat content). All subjects were hospitalized until completion of blood sampling for PK and PD (from day −1 to day 21). All meals were nutritionally equivalent and provided at the same time scheduled throughout the study period. The participants were not permitted to take any drugs or herbal medications and also were restricted from consuming any other snacks or beverages during the study.
# as §2
# PK and PD models were developed using NONMEM version 7.3 (Icon Development Solutions, Ellicott City, MD, USA) using a first-order conditional estimation with interaction method (FOCE-INTER). R (version 3.6.1, R Foundation for Statistical Computing, Vienna, Austria) was used for data preparation, graphical analysis, and model diagnostics. The population PK-PD model was developed sequentially. The PK model was initially developed, and then the CETP model (PK-PD) was developed using individual PK parameters estimated from the final PK model. Finally, the cholesterol (HDL-C or LDL-C) models were developed using the individual CETP parameters estimated from the final CETP model.
# Inter-individual variability (IIV) for each parameter in all models was assumed to follow a Gaussian distribution with a mean of 0 and variance of ω^2. For the PK model, once the IIV term was selected, the covariance between the terms was assessed using an omega block on selected parameters. As for the residual error, additive, proportional, and combined models were tested. The model was selected after a comparison of several criteria such as a decrease in the objective function value (OFV), completion of the estimation and covariance routines, the precision of the parameter and error estimates, and visual exploration of the diagnostic plots.
# Several disposition models were assessed, including 1-, 2-, and 3- compartment structural models. Absorption was evaluated with first-order, zero-order (with and without lag time), Weibull-type, and Erlang’s model. The bioavailability was assessed about the effects of the dose and time. […]
# [9] = cited from earlier work
# [10] = design: method as in PMID 30107219, PMID 27895466; settings: at pH 7.4; cited from earlier work
# [11] = final population PK model estimate
smiles,measurement,setting,value
COc1cc(F)c(C(C)C)cc1C1=C(CN2C(=O)O[C@H](c3cc(C(F)(F)F)cc(C(F)(F)F)c3)[C@@H]2C)CC(C)(C)CC1 [CKD-519],maximum inhibitory effect of CETP activity,[1]; single administration 25–400 mg,63–83%
same,EC50 (CETP activity),[1]; single administration,0.0173 µg/mL
same,inhibitory effect of CETP activity,[2]; fasted group,81.5%
same,inhibitory effect of CETP activity,[2]; fed group,91.4%
same,"EC50, plasma drug concentration of half-maximal effect on CETP activity",[3]; CETP model estimate,0.587 µg/mL
same,"Emax, maximal effect of plasma drug concentration on CETP activity","[3]; CETP model estimate, stimulation of Kout",18.2
same,"ωEmax, interindividual variability on Emax",[3]; CV%,39.5%
same,increase in AUC relative to the fasted state,[4],5.8 fold
same,increase in Cmax relative to the fasted state,[4],8.7 fold
same,increase in serum CETP concentration,[5],approximately 2.5 fold
same,"ωGAM, interindividual variability on γ","[6]; CV%, LDL-C model",50.9%
same,"R50, CETP activity of half-maximal effect on LDL-C response",[6]; LDL-C model estimate,80.7 pmol
same,"Rmax, maximal effect of CETP activity on LDL-C response",[6]; LDL-C model estimate,0.8
same,"γ, steepness of the CETP activity versus LDL-C relationship",[6]; LDL-C model estimate,2.2
same,maximal decrease in LDL-C,[6]; estimated,47–66%
same,"R50, CETP activity of half-maximal effect on HDL-C response",[7]; HDL-C model estimate,185.0 pmol
same,"Rmax, maximal effect of CETP activity on HDL-C response",[7]; HDL-C model estimate,1.5
same,"γ, steepness of the CETP activity versus HDL-C relationship",[7]; HDL-C model estimate,2.1
same,maximal increase in HDL-C,[7]; estimated,160–190%
same,increase of CL/F from 50 mg to 200 mg,[8]; 50 mg vs 200 mg,approximately 2.5 fold
same,increase of AUC after multiple administration compared to the first dose,[8]; 400 mg group,three-fold increase
same,"α1, proportionality constant for fraction of first-order absorption process depending on time","[8]; 50, 100 and 200 mg dose groups",0.002
same,"ωBmax, interindividual variability on BMAX",[8]; CV%,28.2%
same,"ωCL/F, interindividual variability on CL/F",[8]; CV%,15.6%
same,"ωKtr, interindividual variability on Ktr",[8]; CV%,14.1%
same,"ωV3/F, interindividual variability on V3/F",[8]; CV%,58.1%
same,Tmax,[8]; all dose groups,approximately 1 h
same,"Ka, absorption rate constant",[8]; [11],1.09 h⁻¹
same,"V2/F, volume of peripheral compartment 1",[8]; [11],45.4 L
same,"V3/F, volume of peripheral compartment 2",[8]; [11],1006.0 L
same,"V/F, volume of central compartment",[8]; [11],11.4 L
same,"CL/F, clearance","[8]; final population PK model estimate, 50–400 mg daily for 14 days with standard meal",6.4 L/h
same,"Ktr, transit rate constant","[8]; final population PK model estimate, Erlang's absorption, five transit compartments",1.10 h⁻¹
same,CL/F,[8]; 50 mg,11.98 L/h
same,CL/F,[8]; 200 mg,30.04 L/h
same,CL/F,[8]; 400 mg,23.98 L/h
same,half-life,"[8]; terminal, across dose groups",145.4 to 166.2 h
same,aqueous solubility,[9],less than 1.0 μg/mL
same,solubility in deionized water,[9]; in vitro solubility test,insoluble
same,solubility in ethyl alcohol,[9]; in vitro solubility test,freely soluble
same,LogP,[10],> 5.0
